The target of this assay is T1, Factor XIIIa (activated FXIII) (Homo sapiens, UniProt P00488).
T1 construct: purchased Enzyme Research Laboratories, Ltd
T1 sequence (P00488 39-732 limits assumed): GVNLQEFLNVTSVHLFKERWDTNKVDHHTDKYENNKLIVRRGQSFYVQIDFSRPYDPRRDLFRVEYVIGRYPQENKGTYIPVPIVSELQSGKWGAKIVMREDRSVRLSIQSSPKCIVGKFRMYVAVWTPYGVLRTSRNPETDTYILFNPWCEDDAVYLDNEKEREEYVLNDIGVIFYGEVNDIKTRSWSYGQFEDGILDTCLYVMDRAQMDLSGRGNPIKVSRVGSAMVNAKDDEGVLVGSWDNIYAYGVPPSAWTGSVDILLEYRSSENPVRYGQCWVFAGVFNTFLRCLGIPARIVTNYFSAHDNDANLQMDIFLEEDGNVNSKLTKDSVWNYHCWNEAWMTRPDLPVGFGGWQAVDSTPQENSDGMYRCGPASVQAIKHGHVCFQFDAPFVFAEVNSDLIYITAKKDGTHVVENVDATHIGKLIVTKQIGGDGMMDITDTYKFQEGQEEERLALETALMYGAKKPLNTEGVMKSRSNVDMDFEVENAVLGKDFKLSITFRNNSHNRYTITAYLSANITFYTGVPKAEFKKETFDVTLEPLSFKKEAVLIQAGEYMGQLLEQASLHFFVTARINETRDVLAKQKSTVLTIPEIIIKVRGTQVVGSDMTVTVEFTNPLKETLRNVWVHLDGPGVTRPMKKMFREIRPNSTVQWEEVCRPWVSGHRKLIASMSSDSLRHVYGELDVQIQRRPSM
In words: Inactivation of purified Factor XIIIa (monodansylcadaverine incorporation into dimethylcasein, fluorescence). As to conditions: for kinact/KI: purified Factor XIIIa, method of Kitz and Wilson, read-out: Second order rate constant for inactivation; for IC50: purified activated FXIII, 50% enzyme inactivation after 5-min incubation with inhibitor at 37° C. in the absence of substrate, read-out: FXIIIa (IC50 in μM). It counts as biochemical. The procedure: FXIII (0.5 mg/mL, Enzyme Research Laboratories, Ltd.) in 50 mM Tris-HCl pH 7.5 containing 100 mM NaCl, 40 mM CaCl2, 1 mM EDTA and 0.1% poly(ethylene glycol) (app. MW=8000) was activated by incubation with 10 NIH units/mL of human thrombin (Calbiochem) at 37° C. for 20 min. Thrombin was quenched with 20 NIH units/mL of hirudin from Leech (Sigma).
Inhibitor solution in DMSO (14 μL) was added to 120 μL of 250 mM Tris-Cl pH 7.5 containing 40 mM CaCl2 and 1 mM EDTA and the solution was incubated at 37° C. for two minutes. Activated FXIII (5 μL, 0.5 mg/mL) was added and the mixture was incubated at 37° C. for 5 min.
An assay mixture composed of 50 mM Tris-Cl pH 8.0, 10 mM CaCl2, 1 mM EDTA, 0.1% poly(ethylene glycol) (app. MW=1000) and 20 μM monodansylcadaverine was prepared in a spectrofluorometric cell in a final volume of 2880 μL. Dimethylcasein (8 μL, 1% in 50 mM sodium phosphate pH 7.5) was added and the solution was incubated at 37° C. for a few minutes. To assay the residual enzyme activity, 120 μL of the solution containing the enzyme and the inhibitor was transferred to the assay mixture. The covalent incorporation of monodansylcadaverine into casein was monitored by an increase in fluorescence at λexc=360 nm and λem=500 nm as previously described (Curtis, C. G.; Lorand, L. Methods Enzymol. 1976, 45, 177-191). To determine uninhibited enzyme activity, DMSO was used in place of inhibitor solution in the above assay. IC50 were determined by plotting the percent of remaining enzyme activity against logarithm of inhibitor concentration. IC50 is defined here as an inhibitor concentration resulting in 50% enzyme inactivation after 5-min incubation of the enzyme with the inhibitor in the absence of the substrate. Second order rate constants for inactivation were determined using method described by Kitz and Wilson (Kitz, R.; Wilson, I. J. Biol. Chem. 1962, 237, 3245).

Bounds are passed on as bounds.

For `O=S(=O)(NCCCCCCNc1nsc2nccn12)c1ccc(Br)cc1Br` [2,4-dibromo-N-[6-(imidazo[1,2-d][1,2,4]thiadiazol-3-ylamino)hexyl]benzenesulfonamide], the kinact/KI was 13000 M⁻¹ s⁻¹.
In general, IC50 refers to the concentration that gives 50% inhibition. Regarding `COC(=O)[C@H](CCCCNc1nsc2nccn12)NS(=O)(=O)c1ccc(C)cc1` [—CH(COOMe)—NH— / 4-Me-Ph, methyl N^ε-imidazo[1,2-d][1,2,4]thiadiazol-3-yl-N^α-[(4-methylphenyl)sulfonyl]lysinate], the IC50 turned out to be 7 µM.
In the case of `COc1ccc(OC)c(S(=O)(=O)NCCCCCCNc2nsc3nccn23)c1` [2-OMe-5-Ome-Ph, 2,5-dimethoxy-N-[6-(imidazo[1,2-d][1,2,4]thiadiazol-3-ylamino)hexyl]benzenesulfonamide], the IC50 is more than 5 µM.
With `COc1ccc(Br)cc1S(=O)(=O)NCCCCCCNc1nsc2nccn12` [2-OMe-5-Br-Ph, 5-bromo--N-[6-(imidazo[1,2-d][1,2,4]thiadiazol-3-ylamino)hexyl]-2-methoxybenzenesulfonamide], the IC50 was found to be 3.7 µM.
Take `NC(=O)CCCN(CCCCCCNc1nsc2nccn12)S(=O)(=O)c1cccc2ccccc12` [3 / NH2 / 1-naphthyl, 4-[[6-(imidazo[1,2-d][1,2,4]thiadiazol-3-ylamino)hexyl](1-naphthylsulfonyl)amino]butanamide]: the IC50 turned out to be 8.6 µM.
For `COc1ccc(S(=O)(=O)NCCCCCCNc2nsc3nccn23)cc1` [4-OMe-Ph, N-[6-(imidazo[1,2-d][1,2,4]thiadiazol-3-ylamino)hexyl]-4-methoxybenzenesulfonamide], the IC50 was found to be 1.4 µM.
In the case of `COC(=O)c1ccccc1S(=O)(=O)NCCCCCCNc1nsc2nccn12` [2-COOMe-Ph, N-[6-(imidazo[1,2-d][1,2,4]thiadiazol-3-ylamino)hexyl]2-methoxycarbonylbenzenesulfonamide], the half-inhibitory concentration (IC50) was found to be 3.2 µM.
As to `NC(=O)CN(CCCCCCNc1nsc2nccn12)S(=O)(=O)c1cccc2ccccc12` [1 / NH2 / 1-naphthyl, N^2-[6-(imidazo[1,2-d][1,2,4]thiadiazol-3-ylamino)hexyl]-N^2-(1-naphthylsulfonyl)glycinamide], the IC50 was found to be 6 µM.
In the case of `O=S(=O)(NCCCCCCNc1nsc2nccn12)c1ccc(Br)cc1OC(F)(F)F` [2-OCF3-4-Br, 4-bromo-N-[6-(imidazo[1,2-d][1,2,4]thiadiazol-3-ylamino)hexyl]-2-(trifluoromethoxy)benzenesulfonamide], the IC50 was found to be 0.42 µM.
`CCOC(=O)CCN(CCCCCCNc1nsc2nccn12)S(=O)(=O)c1ccc(F)cc1F` [2 / OEt / 2-F-4-F-Ph, Ethyl N-[(2,4-difluorophenyl)sulfonyl]-N-[6-(imidazo[1,2-d][1,2,4]thiadiazol-3-ylamino)hexyl]-β-alaninate]: the IC50 was 6.8 µM.
With `O=C(O)CN(CCCCCCNc1nsc2nccn12)S(=O)(=O)c1cccc2ccccc12` [1 / OH / 1-naphthyl, N-[6-(imidazo[1,2-d][1,2,4]thiadiazol-3-ylamino)hexyl]-N-(1-naphthylsulfonyl)glycine], the IC50 was found to be 6.8 µM.
For “4-benzyl-{N^ε-imidazo[1,2-d][1,2,4]thiadiazol- 3-yl-N^α-[(4- methylphenyl)sulfonyl]lysyl}piperidine”, the IC50 amounted to 5.6 µM.
Still for that read-out and setting: as for `CN(CCCCCCNc1nsc2nccn12)S(=O)(=O)c1cccc2ccccc12` [CH3 / H / 1-naphthyl, N-[6-(imidazo[1,2-d][1,2,4]thiadiazol-3-ylamino)hexyl]-N-methylnaphthalene-1-sulfonamide], the figure is 2.4 µM.
As for `Cc1ccc(S(=O)(=O)N[C@@H](CCCCNc2nsc3nccn23)C(=O)NCc2ccc(F)cc2)cc1` [N-(4-fluorobenzyl)-N^ε-imidazo[1,2-d][1,2,4]thiadiazol-3-yl-N^α-[(4-methylphenyl)sulfonyl]lysinamide], the half-maximal inhibitory concentration (IC50) amounted to 6.7 µM.
Still for that read-out and setting: as for `O=S(=O)(NCCCCCCNc1nsc2nccn12)c1ccc(Br)cc1` [4-Br-Ph, 4-bromo-N-[6-(imidazo[1,2-d][1,2,4]thiadiazol-3-ylamino)hexyl]benzenesulfonamide], the figure is 0.93 µM; as for `COC(=O)CN(CCCCCCNS(=O)(=O)c1ccccc1[N+](=O)[O-])c1nsc2nccn12` [H / CH2COOMe / 2-NO2-Ph, methyl N-imidazo[1,2-d][1,2,4]thiadiazol-3-yl-N-(6-{[(2-nitrophenyl)sulfonyl]amino}hexyl)glycinate], 0.88 µM.
Turning to `O=S(=O)(NCCCCCCNc1nsc2nccn12)c1c(F)ccc(Br)c1F` [2-F-3-Br-6-F-Ph, 3-bromo-2,6-difluoro-N-[6-(imidazol[1,2-d][1,2,4]thiadiazol-3-ylamino)hexyl]benzenesulfonamide], the IC50 turned out to be 2.1 µM.
Turning to `CNC(=O)c1ccccc1S(=O)(=O)NCCCCCCNc1nsc2nccn12` [2-CONHMe-Ph, 2-({[6-(imidazo[1,2-d][1,2,4]thiadiazol-3-ylamino)hexyl]amino}sulfonyl)-N-methylbenzamide], the IC50 was 13.8 µM.
For `O=[N+]([O-])c1ccc(NCCCCCCNc2nsc3nccn23)c([N+](=O)[O-])c1` [N^1-(2,4-dinitrophenyl)-N^6-imidazo[1,2-d][1,2,4]thiadiazol-3-ylhexane-1,6-diamine], the kinact/KI turned out to be 8900 M⁻¹ s⁻¹.
`CN(CCCCCCN(C)S(=O)(=O)c1ccccc1[N+](=O)[O-])c1nsc2nccn12` [CH3 / CH3 / 2-NO2-Ph, N-{6-[imidazo[1,2-d][1,2,4]thiadiazol-3-yl(methyl)amino]hexyl}-N-methyl-2-nitrobenzenesulfonamide]: the IC50 came to 0.6 µM.
For the compound `O=S(=O)(NCCCCCCNc1nsc2nccn12)c1ccc(F)cc1Cl` [2-Cl-4-F-Ph, 2-chloro-4-fluoro-N-[6-(imidazo[1,2-d][1,2,4]thiadiazol-3-ylamino)hexyl]benzenesulfonamide], the IC50 turned out to be 0.6 µM.
With `Cc1ccc(S(=O)(=O)N[C@@H](CCCCNc2nsc3nccn23)C(=O)N2CCN(Cc3ccccc3)CC2)cc1` [4-benzyl-{N^ε-imidazo[1,2-d][1,2,4]thiadiazol-3-yl-N^α-[(4-methylphenyl)sulfonyl]lysyl}piperazine], the IC50 amounted to 6.5 µM.
For the compound `Cc1ccc(S(=O)(=O)NC(CCCCNc2nsc3nccn23)C(N)=O)cc1` (stereo not drawn) [—CH(CONH2)—NH— / 4-Me-Ph], the IC50 came to 9.1 µM.
Turning to `N#Cc1ccccc1S(=O)(=O)NCCCCCCNc1nsc2nccn12` [2-CN-Ph, 2-cyano-N-[6-(imidazo[1,2-d][1,2,4]thiadiazol-3-ylamino)hexyl]benzenesulfonamide], the IC50 was found to be 2.7 µM.
On the same count and under the same terms, next, `Cc1ccc(S(=O)(=O)N[C@@H](CCCCNc2nsc3nccn23)C(=O)O)cc1` [—CH(COOH)—NH— / 4-Me-Ph, N^ε-imidazo[1,2-d][1,2,4]thiadiazol-3-yl-N^α-[(4-methylphenyl)sulfonyl]lysine]: 6.7 µM; `O=C(O)CCCCCN(CCCCCCNc1nsc2nccn12)S(=O)(=O)c1ccc(F)cc1F` [5 / OH / 2-F-4-F-Ph, 6-{[(2,4-difluorophenyl)sulfonyl][6-(imidazo[1,2-d][1,2,4]thiadiazol-3-ylamino)hexyl]amino}hexanoic acid]: 6.8 µM.
Still for that read-out and setting: as for `N#Cc1ccc(S(=O)(=O)NCCCCCCNc2nsc3nccn23)cc1` [4-CN-Ph, 4-cyano-N-[6-(imidazo[1,2-d][1,2,4]thiadiazol-3-ylamino)hexyl]benzenesulfonamide], the figure is 1.6 µM.

(Values after patent publication US20030225007A1, “Sulfonamide derivatives of 3-substituted imidazol[1,2-d]-1,2,4-thiadiazoles and 3-substituted-[1,2,4] thiadiazolo[4,5-a] benzimidazole as inhibitors of fibrin cross-linking and transglutaminases” (Apotex Inc., priority 2002, published 2003).)
